{"source": "patent US11274328B2", "about": "“Methods for producing rebaudioside D and rebaudioside M and compositions thereof” (SICHUAN INGIA BIOSYNTHETIC CO., LTD., priority 2018, dated 2022)", "key": {"[1]": {"settings": "relative to sucrose of the same weight; cited from earlier work"}, "[2]": {"test": "Sensory analysis (triangle test), taste comparison with sucrose as control sample", "type": "in vivo", "settings": "vs sucrose; for Difference (number of answers) / No difference (number of answers): aqueous solutions of same sweetness", "text": "The sweetener composition shall be tested, evaluated and analyzed by referring to Sensory Analysis Methodology (Triangular Test) (BS ISO 4120) and Sensory Analysis Method (Triangle Test) (GB/T 12311). The specific analysis method is as follows:\nMethod and principle: A group of three samples shall be provided to evaluators, two of which are identical and the evaluators shall select a single sample.\nPreparation of test samples: Enough samples A and B shall be provided, and every three test samples are a group.\nSample groups with equal number of samples shall be prepared from laboratory samples in the following six combinations: ABB, AAB, ABA, BAA, BBA and BAB.\nTest requirements: Evaluators shall not make conclusion as to the nature of samples from sample supply methods. All test sample groups shall be prepared in the same way [the same equipment, the same container, the same quantity of products and the same arrangement (triangle, straight line, etc.)]. In any sample group, the temperature of test samples shall be the same, and if possible, the temperature of all other sample groups in the test series provided shall also be the same. Test sample containers shall be numbered generally with three random digits. The number shall be different for each test.\nTest techniques: Evaluators shall be notified of the test purpose to the extent that their conclusions are not biased. Groups of prepared samples shall be randomly assigned to the evaluators, then the evaluators shall check test samples of each group in the specified order, and the order shall be the same in the same series of tests. While evaluating three test samples in the same group, the evaluators shall have the opportunity to retest each sample. The test leader can tell the evaluators the quantity and volume of samples provided when necessary. When the number of evaluators is less than a multiple of 6, the following two approaches can be taken. (a) Discard redundant sample groups, or (b) Provide each evaluator with six groups of samples for retest.\nWhen the evaluator cannot identify the difference, the answer “no difference” is allowed.\nThe number of “difference” or “no difference” answers shall be counted. When the number of evaluators (n) is greater than 100, the minimum number of answers needed to determine the significant difference in the triangle test at different significance levels (X) is calculated according to the following formula, and the nearest integer value shall be taken. Where, α is the significance level, which is an expected value.\nThe above evaluation and analysis methods were applied to analyze different compositions, with sucrose as the control sample. Samples and the control sample were prepared respectively into aqueous solutions with the same sweetness and then tested according to the requirements of the above-mentioned sensory analysis method. […]\nRebaudioside A (>97%), DM 3:1 mixture, DM 3:1 mixture-rebaudioside A (1:9, w/w), DM 3:1 mixture-rebaudioside A (9:1, w/w), DM 3:1 mixture-rebaudioside A (3:7, w/w) were analyzed according to the evaluation and analysis methods described above, with sucrose as the control sample. Samples and the control sample were prepared respectively into aqueous solutions with the same sweetness and then tested according to the requirements of the above-mentioned sensory analysis method. […]\nRebaudioside A (>97%), DM 3:1 mixture, DM 3:1 mixture-rebaudioside A (3:7, w/w), DM 3:1 mixture-rebaudioside A (7:3, w/w), DM 3:1 mixture-rebaudioside A (4:6, w/w) were analyzed according to the evaluation and analysis methods described above, with sucrose as the control sample. Samples and the control sample were prepared respectively into aqueous solutions with the same sweetness and then tested according to the requirements of the above-mentioned sensory analysis method. Effective evaluators are 125 primary evaluators, who were allowed to answer “no difference”. […]"}, "[3]": {"test": "Heat and pH stability of reb M", "type": "physicochemical"}, "[4]": {"test": "Solubility of reb M in water and solvents", "type": "physicochemical"}, "[5]": {"settings": "Evaluation I, 135 primary evaluators"}, "[6]": {"settings": "Evaluation II, 135 primary evaluators"}, "[7]": {"settings": "Evaluation III, 125 primary evaluators"}, "[8]": {"settings": "Evaluation IV, 128 primary evaluators"}}}
{"compound": "13-[(2O-β-D-glucopyranosyl-3-O-β-D-glucopyranosyl-β-D-glucopyranosyl)oxy]kaur-16-en18-oic acid, 2-O-β-D-glucopyranosyl-3-O-β-D-glucopyranosyl-β-D-glucopyranosyl ester [RD]", "values": [{"measurement": "Sweetness Multiple (1 for sucrose of the same weight)", "setting": "[1]", "result": "150-250"}, {"measurement": "Difference (number of answers)", "setting": "[2]; [5]", "result": 79}, {"measurement": "No difference (number of answers)", "setting": "[2]; [5]", "result": 56}, {"measurement": "Conclusion (taste compared with sucrose)", "setting": "[2]; [5]", "result": "Similar"}]}
{"compound": "C=C1C[C@@]23CC[C@H]4[C@@](C)(CCC[C@@]4(C)C(=O)O[C@@H]4O[C@H](CO)[C@@H](O)[C@H](O)[C@H]4O)[C@@H]2CC[C@]1(O[C@@H]1O[C@H](CO)[C@@H](O)[C@H](O[C@@H]2O[C@H](CO)[C@@H](O)[C@H](O)[C@H]2O)[C@H]1O[C@@H]1O[C@H](CO)[C@@H](O)[C@H](O)[C@H]1O)C3", "note": "[RA, rebaudioside A]", "values": [{"measurement": "Sweetness Multiple (1 for sucrose of the same weight)", "setting": "[1]", "result": "350-450"}, {"measurement": "Difference (number of answers)", "setting": "[2]; [6]", "result": 85}, {"measurement": "No difference (number of answers)", "setting": "[2]; [6]", "result": 50}, {"measurement": "Conclusion (taste compared with sucrose)", "setting": "[2]; [6]", "result": "Dissimilar"}, {"measurement": "Difference (number of answers)", "setting": "[2]; [7]", "result": 78}, {"measurement": "No difference (number of answers)", "setting": "[2]; [7]", "result": 47}, {"measurement": "Conclusion (taste compared with sucrose)", "setting": "[2]; [7]", "result": "Dissimilar"}, {"measurement": "Difference (number of answers)", "setting": "[2]; [8]", "result": 82}, {"measurement": "No difference (number of answers)", "setting": "[2]; [8]", "result": 46}, {"measurement": "Conclusion (taste compared with sucrose)", "setting": "[2]; [8]", "result": "Dissimilar"}]}
{"compound": "C=C1C[C@@]23CC[C@H]4[C@@](C)(CCC[C@@]4(C)C(=O)O[C@@H]4O[C@H](CO)[C@@H](O)[C@H](O[C@@H]5O[C@H](CO)[C@@H](O)[C@H](O)[C@H]5O)[C@H]4O[C@@H]4O[C@H](CO)[C@@H](O)[C@H](O)[C@H]4O)[C@@H]2CC[C@]1(O[C@@H]1O[C@H](CO)[C@@H](O)[C@H](O[C@@H]2O[C@H](CO)[C@@H](O)[C@H](O)[C@H]2O)[C@H]1O[C@@H]1O[C@H](CO)[C@@H](O)[C@H](O)[C@H]1O)C3", "note": "[RM]", "values": [{"measurement": "Sweetness Multiple (1 for sucrose of the same weight)", "setting": "[1]", "result": "200-350"}, {"measurement": "Difference (number of answers)", "setting": "[2]; [5]", "result": 97}, {"measurement": "No difference (number of answers)", "setting": "[2]; [5]", "result": 38}, {"measurement": "Conclusion (taste compared with sucrose)", "setting": "[2]; [5]", "result": "Dissimilar"}, {"measurement": "heat and pH stability", "setting": "[3]", "result": "heat and pH-stable"}, {"measurement": "solubility in organic solvents", "setting": "[4]; acetone, benzene, chloroform, and ether", "result": "insoluble"}, {"measurement": "solubility in diluted alcohols", "setting": "[4]; diluted solutions of methanol, ethanol, n-propanol, and isopropanol", "result": "soluble"}, {"measurement": "solubility in water", "setting": "[4]; water, increases with an increase in temperature", "result": "around 0.3%"}]}
{"compound": "C=C1C[C@@]23CC[C@H]4[C@@](C)(CCC[C@@]4(C)C(=O)O[C@@H]4O[C@H](CO)[C@@H](O)[C@H](O)[C@H]4O)[C@@H]2CC[C@]1(O[C@@H]1O[C@H](CO)[C@@H](O)[C@H](O)[C@H]1O[C@@H]1O[C@H](CO)[C@@H](O)[C@H](O)[C@H]1O)C3", "note": "[STv, stevioside, reference compound]", "values": [{"measurement": "Sweetness Multiple (1 for sucrose of the same weight)", "setting": "[1]", "result": "270-300"}]}
